Measured values published in patent EP1234878A1, “USE OF DISEASE-ASSOCIATED GENE” (Takeda Chemical Industries, Ltd., priority 1999, dated 2001).

test system: human CLCA1 protein, SEQ ID NO: 2 (human CLCA1 expressing CHO cells); assay: Cl- ion secretion assay using human CLCA1-expressing CHO cells (MEQ fluorescence, ionomycin stimulation); type: cell-based; conditions: anionic transport inhibitor added at 200 µM or 10 µM (FIG. 11), room temperature for 30 minutes, then ionomycin 10 µM; Cl- ion fluorescence indicator MEQ
Method: Human CLCA1-expressing plasmid pcDNA-hCLCA1 shown in EXAMPLE 6 was transfected to CHO cells using Gene transfer lyo (manufactured by Wako Pure Chemical Industries, Ltd.) in accordance with the attached manual. The cells were subjected to selective culture for 10 days in MEM-α medium (manufactured by GIBCO BRL) supplemented with 1 mg/ml of neomycin (G418) (manufactured by GIBCO BRL) to obtain the cells grown as human CLCA1 expressing CHO cells. The human CLCA1 expressing CHO cells and parent CHO cells were seeded on a 96-well plate (manufactured by Packard Inc.) coated with 2 µg/ml of fibronectin (manufactured by Itoham Foods, Inc.), respectively, in a concentration of 4 x 10^4 cells/well, followed by culturing at 37°C for 24 hours under 5% CO2. After completion, the culture solution was washed once with a buffer solution containing no Cl^- ions (2.4 mM K2HPO4, 0.6 mM KH2PO4, 10 mM D-glucose, 1 mM MgSO4, 1 mM CaSO4, 135 mM NaNO3, 10 mM HEPES, pH 7.4), and 1 mM of Cl^- ion fluorescence indicator 6-methoxy-N-ethylquinolinium iodide (MEQ, manufactured by Moelcular Probes, Inc.) was added in an amount of 100 µl/well to the culture solution, followed by incubation at 37°C for further 2 hours. The culture solution was further washed twice with a Cl^- ion-containing buffer solution (2.4 mM K2HPO4, 0.6 mM KH2PO4, 10 mM D-glucose, 1 mM MgSO4, 1 mM CaSO4, 135 mM NaCl, 10 mM HEPES, pH 7.4), and then allowed to stand at room temperature for 30 minutes. Each well was replaced by the buffer solution containing no Cl^- ions and ionomycin was added to make the concentration of 10 µM. Immediately thereafter, the fluorescence intensity was measured at an excited wavelength of 355 nm and a measurement wavelength of 460 nm, usingamulti-label counter Wallac1420ARVOsx (manufactured by Amersham Pharmacia Biotech).
When stimulated with 10 µM ionomycin (manufactured by Wako Pure Chemical Industries, Inc.), the fluorescence intensity increased in human CLCA1 expressing CHO cells by about twice, as compared to the parent CHO cells (FIG. 10). […]

| Compound | increase of the fluorescence intensity by ionomycin stimulation of human CLCA1 expressing CHO cells |
| --- | --- |
| O=S(=O)(O)c1cc(N=C=S)ccc1C=Cc1ccc(N=C=S)cc1S(=O)(=O)O [4,4'-diisothiocyanastilbene-2,2'-disulfonic acid] | suppressed |
| O=C(O)c1cccnc1Nc1cccc(C(F)(F)F)c1 [niflumic acid] | suppressed |
| O[C@H](CS)[C@H](O)CS (racemic) [dithiothreitol] | suppressed |
